# Test system: Zein protein
# Assay: Zein solubilization test (mildness)
# Protocol: • 1. Prepare a 5 wt. % aqueous solution of the surfactant. If the natural pH of the system differs from that desired, adjust by incremental addition of acid or base. • 2. Mix 4 grams of Zein protein in 40 grams of the surfactant solution. Allow the mixture to stand at room temperature for 24 hours with frequent vigorous shaking. • 3. Filter the supernatant of the Zein/surfactant mixture using a syringe filter with a 0.45 micron Nylon membrane. Dilute the filtered solution 100-fold with 2% SDS solution (i.e., 0.1 gram filtered solution diluted in 10 grams of 2% SDS solution). As a reference, also prepare a diluted surfactant solution by mixing 0.1 grams of 5 wt. % surfactant solution with 10 grams of 2% SDS solution. • 4. The Zein concentration is determined using a UV/VIS spectrophotometer operated in the range 200-350 nm at a scanning rate of 800 nm/min, using a 2% SDS solution as the background. […] The Zein solubility in the 5 wt. % surfactant solution is C, times the dilution factor.
# […] Zein and surfactant were contacted for 24 hours.
# Zein tests reported in Table V were all conducted at 45° C. rather than at room temperature.
substance,measurement,setting,value
Sodium lauryl ether sulfate [SLES],Percent Zein Solubilized,"Table I, pH 6.0, 5% total surfactant solutions, Zein and surfactant contacted 24 hours",4.64%
same,Percent Zein Solubilized,"Table II, comparators at pH 6.0",4.11%
same,Percent Zein Solubilized,"Table IV, C12 MAP blended with other carboxylic acids, pH 5.0",3.52%
same,Percent Zein Solubilized,"Table V, C12 MAP blended with fatty alcohols, pH 5.0, conducted at 45° C.",3.52%
same,Percent Zein Solubilized,"Table VI, negative controls, strong acid auxiliary agents, pH 5.0",3.52%
same,Percent Zein Solubilized,"Table VII, C12 MAP acid 60/40 weight ratio with auxiliary, combined 5% in water, amino acid counterion to pH 5, listed as 42",3.55%
same,Percent Zein Solubilized,"Table VII, C12 MAP acid 60/40 weight ratio with auxiliary, combined 5% in water, amino acid counterion to pH 5, listed as 46",3.42%

# From US7241724B2, “Personal care compositions comprising alkyl phosphate surfactants and selected auxiliary surfactants” (priority 2005, dated 2007)
